Laboratory results: US8951529B2, “Methods of using small compounds to enhance myeloid derived suppressor cell function for treating autoimmune diseases” (Icahn School of Medicine at Mount Sinai, priority 2009, dated 2015)

Assays:
MDSCs = assay: Foxp3 RT-PCR of MDSC-activated T regulatory cells with MAP kinase activator or inhibitors; assay type: cell-based, mouse; details: FIG. 13B
Method: The expression of Foxp3 and actin (as internal control) was determined by RT-PCR in MDSC-activated T regulatory cells in the presence of p38 MAP kinase activator, anisomycin, p38 MAP kinase inhibitor, SB, and Erk inhibitor, PD (FIG. 13B).

Gr-1+/CD115+ MDSCs = assay: HA-TCR T-cell proliferation with MDSCs and MAP kinase activator or inhibitors; assay type: cell-based, mouse; details: HA peptide, three days, viable T cell count, FIG. 13A
Method: To determine whether MAP kinase is involved in MDSC-mediated T cell suppression and Treg activation, monocytic MDSCs (Gr-1+/CD115+) were purified from spleen of tumor bearing mice and the suppressive function was evaluated. Purified T cells from HA-TCR transgenic T cells were cultured in the presence or absence of irradiated purified Gr-1+/CD115+ MDSCs from tumor-bearing mice, irradiated splenocytes from naïve mice as antigen presenting cells, anisomycin, various inhibitors, and HA peptide (0.5 μg/m1). Three days later, T cell proliferation was assessed by counting viable (trypan blue negative) total T cell number. Proliferation percentages were calculated by the number of experimental group divided by the number of T cell without MDSC, anisomycin or inhibitors (SB, PD). *p<0.05 by ANOVA t-test (FIG. 13A).

DSS-induced colitis = DSS-induced colitis in vivo model; design: species or system C57BL/6 mice; details: day 11, in comparison with naive healthy mice, FIG. 5C
Text: In certain aspects, the invention is related to the treatment of IBDs. Mouse models of IBD are well known in the art, and may be used to model human IBDs. For example, dextran sodium sulfate (DSS) may be administered to mice to induce IBD. In this model, mice are fed with water containing 3.5% DSS from day 0 to day 11. Following treatment, mice develop colitis. The severity of colitis is quantified (assigned a clinical score) by assessing stool consistency, bleeding, and weight loss, which ranges from 0 (healthy) to 4 (maximal severity). Histologically, DSS produces submucosal erosions, ulceration, inflammatory cell infiltration and crypt abscess as well as epithelioglandular hyperplasia. […] [Kawada et al., 2007, World J. Gastroenterol. 13: 5581-5593; Okayasu et al., 1990, Gastroenterology 98:694-702]
For adoptive transfer of MDSCs, 5×10^6 purified MDSCs suspended in PBS were administered by intravenous infusion at day 0 and day 7.
Mice were left untreated or treated with sorted MDSCs (5×10^6 cells/mouse) alone or in combination with GA and/or SP600125 (Sigma-Aldrich), on the day of disease induction. […] The severity of colitis was quantitated as a clinical score by assessing stool consistency, bleeding, and weight loss, which ranges from 0 (healthy) to 4 (maximal severity). The clinical score (weight loss, stool consistency, and bleeding) of treated mice was assessed in a double-blind fashion.
On day 11 post-IBD induction, colon tissues from treated mice were removed, fixed in 3% formaldehyde, sectioned, and stained with H&E staining to determine the pathology score of colitis. To reflect the general condition of the mice, a disease activity index (DAI) was determined by an investigator blinded to the protocol by scoring the extent of body weight loss, stool guaiac positivity or gross bleeding, and stool consistency according to the method described in Murthy et al. (1993) “Treatment of Dextran Sulfate Sodium-Induced Murine Colitis by Intracolonic Cyclosporin,” Digest. […] Stool consistency and the degree of blood in stool were evaluated on the day when animals were killed. […]

SMILES | Treg induction by MDSCs as assessed by Foxp3 expression by RT-PCR (MDSCs) | MDSC suppression of HA-TCR T-cell proliferation (Gr-1+/CD115+ MDSCs) | decrease in colonic length (DSS-induced colitis)
C[S+]([O-])c1ccc(-c2nc(-c3ccc(F)cc3)c(-c3ccncc3)[nH]2)cc1 (stereo not shown) [SB203580, 4-(4-Fluorophenyl)-2-(4-methylsulfinylphenyl)-5-(4-pyridyl)-1H-imidazole] | not significantly different | not reverted or enhanced | –
COc1cccc(-c2cc(=O)c3ccccc3o2)c1N [PD98059, 2-(2-Amino-3-methoxyphenyl)-4H-1-benzopyran-4-one] | not significantly different | not reverted or enhanced | –
COc1ccc(C[C@H]2NC[C@H](O)[C@H]2OC(C)=O)cc1 [anisomycin] | decreased Treg induction | reverted the suppressive activity | –
Oc1c2ccccc2c2c3c(cccc13)N=N2 [SP600125, 1,9-Pyrazoloanthrone] | – | – | 51.6%
